In PubChem BioAssay (NCI) one finds TGI and GI50 data, which are given here for 17 molecules.

Holding throughout (experiment): NCI tumour cell line growth inhibition, 48 h
The test system of test [1] is SF-539 CNS.
The subject of test [2] is T-47D breast.
Test [3] concerns MCF7 breast.
The test system of test [4] is HOP-62 NSCLC.
Test [5] concerns UACC-257 melanoma.
For test [6], the system named is TK-10 renal.
Test [7] has as its system 786-0 renal.
Test [8] has as its system SN12C renal.
Test [9] concerns NCI-H23 lung.
The test system of test [10] is SNB-75 CNS.

“And” between values parts separate entries of the source, which are not always exact repeats. Equal values may be shown once.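 All cell lines were grown in 96-well plates and treated with compound for 48 hours. Abbreviation: GI50, concentration required for 50% inhibition of growth. TGI: total growth inhibition.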 A value given as a limit tells only on which side of the number the result lay.

In the case of `CC(C)(C)[Si](C)(C)OCC1OC(n2cnc3c(=O)[nH]c(N)nc32)C(O[Si](C)(C)C(C)(C)C)C1O[Si](C)(C)C(C)(C)C` (centres undefined), the TGI turned out to be 5.72 µM in [1]; 5.14 µM in test [2]; 3.9 µM in test [3]; 7.73 µM in test [4]; 9.4 µM in test [5]; 5.97 µM in test [6]. Moreover, the TGI in [7] turned out to be 4.88 µM; in test [8], 5.02 µM; in [9] it was 2.9 µM; in test [10], 9.57 µM.

With `CSc1scc2c1/C(=N/NC(N)=O)CCC2`, the TGI in test [1], in [2], in test [3], in test [4], in test [5] and in [6] was > 100 µM throughout. The TGI in test [7], in test [8], in test [9] and in [10] was > 100 µM each time.

As for `c1ccc(CN2CCN3CCN(CC2)CCN(Cc2ccccc2)CC3)cc1`, the TGI in [1] came out at 21.6 µM; in test [2], 35.8 µM; in test [3], 18.8 µM; in [4] it was 32.5 µM; in test [5], 8.8 µM; in test [6], 23.5 µM. Moreover, the TGI in [7] was 18.2 µM; in [8] it was 16.9 µM; in [9], 21.8 µM; in test [10] it was 18.2 µM.

On to `NC(N)=NCCCC(NC(=O)OCCCCn1ccc(N)nc1=O)C(=O)O` (centres undefined), for which the TGI in test [1], in [2], in test [3], in [4], in test [5] and in [6] was > 100 µM throughout. Moreover, the TGI in [7], in test [8], in test [9] and in test [10] was > 100 µM throughout.

As for `C=C(C(=O)O[C@H]1C(=O)C2=C(C)CCC3C(=C)C(=O)O[C@@H]3C2[C@]1(C)O)C1CC[C@]2(C)CCCC(=C)[C@H]2C1` (some centres undefined), the GI50 in [1] is 7.16 µM; in test [2], 2.06 µM; in [3], 1.75 µM; in test [4], 3.09 µM; in test [6] it was 6 µM; in test [8], 7.25 µM. In addition, in test [10], the GI50 is 2.42 µM. The TGI in test [1] is 16.5 µM and 10.3 µM; in [2], 13.1 µM and 5.03 µM; in [3], 8.81 µM and 10.8 µM; in test [4], 10.2 µM and 20.5 µM; in test [5], 14 µM and 12 µM; in test [6] it was 12.3 µM and 6.78 µM. The TGI in [7] is 4.29 µM; in test [8], 15.5 µM and 8.62 µM; in test [9], 16.1 µM and 16.8 µM; in test [10], 8.05 µM and 6.71 µM.

With `Cc1ccc(NC(=O)CSC(N)=O)cc1C`, the TGI in [1], in [2], in [3], in [4], in [5] and in [6] was > 100 µM in each case. Besides, the TGI in test [7], in [8], in test [9] and in [10] was > 100 µM throughout.

As to `COc1cc(CS(=O)c2ccc(O)cc2)cc(OC)c1OC` (centres undefined), the TGI in test [1], in test [2], in test [3], in test [4], in test [5] and in test [6] was > 100 µM each time. Besides, the TGI in [7], in test [8], in test [9] and in [10] was > 100 µM throughout.

On to `Oc1ccc(Cl)cc1C1=NC(/N=C\c2ccccc2)=NC(c2ccccc2)C1` (centres undefined), for which the TGI in test [1], in test [2], in test [3], in test [4], in [5] and in test [6] was > 100 µM in each case. Moreover, the TGI in test [7] is > 100 µM; in [8], > 100 µM; in test [9], > 100 µM; in test [10] it was 64.7 µM.

As to `CN(C)CCCNCc1cccc2ccccc12`, the TGI in [1], in [2], in test [3], in test [4], in test [5] and in [6] was > 100 µM in each case. Further, the TGI in test [7], in [8], in test [9] and in test [10] was > 100 µM throughout.

For the molecule `C=C(c1ccccc1)c1ccccc1-c1cc(-c2ccccc2)cc(-c2ccccc2)n1`, the TGI in [1] was > 100 µM; in test [2], 61.3 µM; in test [3], > 100 µM; in test [4] it was > 100 µM; in [5] it was > 100 µM; in [6], > 100 µM. In addition, the TGI in [7], in [8], in test [9] and in test [10] was > 100 µM throughout.

As for `C=C1CN(C2=NCCO2)C1`, the TGI in test [1], in test [2], in [3], in test [4], in test [5] and in [6] was > 100 µM throughout. Besides, the TGI in test [7], in [8], in [9] and in test [10] was > 100 µM in each case.

For the molecule `C=C(C)CNC(=S)N(N)c1ccc2ccccc2c1`, the TGI in [1] is > 100 µM; in [2] it was > 100 µM; in test [3], > 100 µM; in test [4] it was > 100 µM; in test [5], > 100 µM; in [6], 71.4 µM. For the same molecule, the TGI in [7], in [8], in [9] and in test [10] was > 100 µM each time.

Turning to `C[C@H]1COC2=C1C(=O)C(=O)c1c2ccc2c1CCCC2(C)C`, the TGI is 18.2 µM in test [1]; > 100 µM in test [2]; 7.88 µM in test [3]; 21.2 µM in [4]; 6.46 µM in test [5]; 65.9 µM in test [6]. Also, the TGI in test [7] is 35.2 µM; in test [8], 21.1 µM; in test [9], 3.57 µM; in [10], 3.81 µM.

On to `O=C1CC2CCC(C1)S2=O` (centres undefined), for which the TGI in test [1], in test [2], in test [3], in test [4], in test [5] and in test [6] was > 100 µM each time. Moreover, the TGI in test [7], in test [8], in [9] and in test [10] was > 100 µM each time.

`CCOC(=O)c1c(-c2cccc3ccccc23)c(C#N)c(=S)n(C2OC(COC(C)=O)C(OC(C)=O)C(OC(C)=O)C2OC(C)=O)c1C` (centres undefined): the TGI in test [1], in [2], in [3], in [4], in [5] and in [6] was > 100 µM each time. The TGI was > 100 µM in test [7], > 100 µM in test [8], > 100 µM in test [9] and 87.9 µM in [10].

Turning to `CN1CCN(C2=CC(=O)c3c(O)ccc(O)c3C2=O)CC1`, the TGI in [1] was 2.96 µM; in [2] it was 2.04 µM; in test [3] it was 1.18 µM; in test [4] it was 2.16 µM; in test [5], 0.467 µM; in [6] it was 4.22 µM. Further, the TGI in test [7] was found to be 3.91 µM; in test [8], 2.99 µM; in [9], 2.8 µM; in test [10], 2.97 µM.

On to `Brc1ccc2c(-c3csc(-c4c[nH]c5ccccc45)n3)c[nH]c2c1`, for which the TGI in test [1] was found to be 30.8 µM; in test [2], 66.4 µM; in [3], 37.1 µM; in test [4], 30.8 µM; in [5], 50.7 µM; in test [6], 27.5 µM. The TGI in [7] stood at 33.8 µM; in test [8], 39.2 µM; in test [9], 28.2 µM; in test [10] it was 46.4 µM. The values for the GI50 in test [3] and in test [9] were 16.7 µM and 14.5 µM, respectively.
